PMC7910394, “Design of PSMA ligands with modifications at the inhibitor part: an approach to reduce the salivary gland uptake of radiolabeled PSMA inhibitors?” (EJNMMI Radiopharmacy and Chemistry, 2021)
Like-named read-outs stand apart in the source and are kept apart here.

Assays:
PSMA = target: T1, PSMA (Homo sapiens, UniProt Q04609); assay: Competitive binding assay (IC50) on LNCaP cells with ([125I]I-BA)KuE as radioligand; settings: ([125I]I-BA)KuE 0.2 nM, HBSS (1% BSA), 4 °C, 1 h
T1 construct: host or cells: LNCaP human prostate cancer cells
T1 sequence (Q04609 whole entry): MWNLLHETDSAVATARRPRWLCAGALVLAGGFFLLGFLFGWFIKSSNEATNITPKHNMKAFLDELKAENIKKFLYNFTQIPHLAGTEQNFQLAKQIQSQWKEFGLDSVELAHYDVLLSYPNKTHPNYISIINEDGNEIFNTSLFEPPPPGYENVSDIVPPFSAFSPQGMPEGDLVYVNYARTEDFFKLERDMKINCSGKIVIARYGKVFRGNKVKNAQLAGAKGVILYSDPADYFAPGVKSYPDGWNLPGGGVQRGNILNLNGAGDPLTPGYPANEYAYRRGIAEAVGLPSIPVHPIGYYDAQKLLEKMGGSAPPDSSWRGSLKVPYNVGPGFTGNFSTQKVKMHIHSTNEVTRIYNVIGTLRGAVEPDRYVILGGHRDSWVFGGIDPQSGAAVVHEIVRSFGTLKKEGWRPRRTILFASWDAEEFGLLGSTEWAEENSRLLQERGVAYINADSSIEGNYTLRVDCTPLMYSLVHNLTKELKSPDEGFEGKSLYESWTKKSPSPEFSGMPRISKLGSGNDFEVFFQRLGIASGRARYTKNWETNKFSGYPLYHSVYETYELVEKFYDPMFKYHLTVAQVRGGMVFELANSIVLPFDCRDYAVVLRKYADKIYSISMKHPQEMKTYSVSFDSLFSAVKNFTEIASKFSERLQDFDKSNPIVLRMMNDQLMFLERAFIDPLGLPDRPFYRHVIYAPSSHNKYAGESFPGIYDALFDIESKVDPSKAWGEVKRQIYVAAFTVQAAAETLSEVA
Method: (§1) PSMA-positive LNCaP cells (300265; Cell Lines Service, Eppelheim, Germany) were cultivated in Dulbecco’s modified Eagle medium/Nutrition Mixture F-12 with GlutaMAX (1/1, DMEM-F12, Thermo Fisher Scientific, Darmstadt, Germany) supplemented with 10% fetal bovine serum (Merck KGaA, Darmstadt, Germany) and kept at 37 °C in a humidified 5% CO2 atmosphere. One day (24 ± 2 h) prior to all in vitro experiments, the cultivated LNCaP cells were harvested using a mixture of trypsin/ethylenediamine-tetraacetic acid (0.05%/0.02%) in PBS (Thermo Fisher Scientific, Darmstadt, Germany) and centrifuged at 1300 rpm (ca. 190×g) for 3 min at room temperature (Heraeus Megafuge 16, Thermo Fisher Scientific, Darmstadt, Germany). After centrifugation, the supernatant was disposed and the cell pellet was resuspended in culture medium. Cells were counted with a Neubauer hemocytometer (Paul Marienfeld GmbH & Co. KG, Lauda-Königshofen, Germany) and seeded in 24-well plates.
(§2) Detailed information on affinity and internalization experiments is provided in the supporting information. […] IC50 values of (^natI-BA)KuE were determined on the same day for monitoring assay performance and to identify abnormal deviations in uptake and/or affinity. […] Data were corrected for non-specific binding and normalized to the specific internalization observed for the radioiodinated reference compound (n = 3).
The culture medium was removed and the cells were washed with 500 µL of Hank’s balanced salt solution (HBSS) (Merck KGaA, Darmstadt, Germany), containing 1% bovine serum albumin (BSA) (Merck KGaA, Darmstadt, Germany). Afterwards, 200 µL of HBSS (1% BSA) were added to each well and equilibrated on ice (4 °C) for 15 min. […] Experiments were carried out in triplicates for each concentration. The final concentrations of unlabeled ligand ranged from 10^-11 - 10^-5 M and the final radioligand concentration was 0.2 nM in all binding assays. The cells were incubated for one hour at 4 °C. Incubation was terminated by removal of the incubation medium. The cells were washed with 250 µL of HBSS (1% BSA) and the wash medium was combined with the respective supernatant. This fraction represents the amount of free radioligand. The cells were lysed by addition of 250 µL of 1 M aqueous NaOH. The lysate of each well was transferred to the respective vial as well as 250 µL of 1 M NaOH used for rinsing the well. Quantification of the amount of free and bound activity was performed in a γ-counter. The corresponding IC50 values were calculated using the GraphPad PRISM7 software.

LNCaP cells = assay: Internalization study of 177Lu-labeled ligands in LNCaP cells, normalized to ([125I]I-BA)KuE; assay type: cell-based, human; settings: 1 h, 37 °C, 1.0 nM 177Lu-compound, normalized to ([125I]I-BA)KuE
Method: as §1, §2
The culture medium was removed and the cells were washed with 500 µL of DMEM-F12 containing 5% BSA. Afterwards, 200 µL of DMEM-F12 (5% BSA) were added to each well and left to equilibrate at 37 °C for 15 min. 25 µL of DMEM-F12 (5% BSA) were added to each well, followed by the addition of 25 µL of the respective ^177Lu-labeled ligand (10.0 nM in DMEM-F12 (5% BSA)). For blocking PSMA-specific binding and uptake, 25 µL of 2-(phosphonomethyl)pentane-1,5-dioic acid (2-PMPA) (100 µM in DMEM (5% BSA)) instead of DMEM-F12 (5% BSA) were added prior to radiotracer addition. […] Each experiment (control and blockade) was performed in triplicate. […] Incubation was terminated by placing the plate on ice (4 °C, 1 min) and removal of the incubation medium. The cells were washed with 250 µL of ice-cold PBS and the wash medium was combined with the respective supernatant. This fraction represents the amount of free radioligand. 250 µL of ice-cold 2-PMPA (10 µM in PBS) were added and the cells were incubated for 10 min at 4 °C. Afterwards, the cells were rinsed again with 250 µL of ice-cold PBS and the wash medium was combined with the respective supernatant. This fraction represents the amount of cell surface-bound ligand. In the last step, the cells were lysed by addition of 250 µL of 1 M aqueous NaOH. After 20 min, the lysate of each well was transferred to the respective vial as well as 250 µL of 1 M NaOH used for rinsing the well. This fraction represents the amount of internalized radioligand. Quantification of the amount of free, cell surface-bound and internalized activity was performed in a γ-counter.

[1] = system: LNCaP tumor xenograft-bearing CB17-SCID mice; assay type: in vivo, mouse
Method: All animal experiments were conducted in accordance with general animal welfare regulations in Germany (German animal protection act, as amended on 18.05.2018, Art. 141 G v. 29.3.2017 I 626, approval no. 55.2–1-54-2532-71-13) and the institutional guidelines for the care and use of animals. To establish tumor xenografts, LNCaP cells (approx. 10^7 cells) were suspended in 200 μL of a 1/1 mixture (v/v) of DMEM F-12 and Matrigel (BD Biosciences, Heidelberg, Germany) and inoculated subcutaneously onto the right shoulder of 6–8 weeks old CB17-SCID mice (Charles River Laboratories, Sulzfeld, Germany). Mice were used for experiments when tumor size reached 5–10 mm in diameter (3–6 weeks after inoculation).
Approximately 2–10 MBq (0.20 nmol) of the ^177Lu-labeled PSMA inhibitors were injected into the tail vein of LNCaP tumor xenograft-bearing male CB17-SCID mice (n = 3 to 5). They were sacrificed by CO2 asphyxiation and cervical dislocation either 1 h or 24 h post injection (p.i.) (n = 3 for [^177Lu]Lu-5, -6 & -7 (proinhibitor compounds I-III), n = 4 for [^177Lu]Lu-10 (alkyne), n = 5 for [^177Lu]Lu-3 (carbamate I) and n = 5 for [^177Lu]Lu-11 (tetrazole)). Selected organs were removed, weighed and organ activities measured in a γ-counter.
Approximately 2 - 10 MBq (0.20 nmol) of the ^177Lu-labeled PSMA inhibitors were injected into the tail vein of LNCaP tumor xenograft-bearing male CB17-SCID mice (n = 3 to 5). They were sacrificed by CO2 asphyxiation and cervical dislocation either 1 h or 24 h post injection (p.i.) (n = 3 for [^177Lu]Lu-5, -6 & -7 (proinhibitor compounds I-III), n = 4 for [^177Lu]Lu-10 (alkyne) and n = 5 for [^177Lu]Lu-3 (carbamate I) and n = 5 for [^177Lu]Lu-11 (tetrazole)). Selected organs were removed, weighed and organ activities measured in a γ-counter.

## CCCCC[C@H](NC(=O)N[C@@H](CCC(=O)N[C@H](CCCNC(=O)CCC(=O)NCCCC[C@@H](NC(=O)[C@@H](CNC(=O)c1ccc([Si](F)(C(C)(C)C)C(C)(C)C)cc1)NC(=O)CN1CCN(CC(=O)[O-])CCN(CC(=O)[O-])CCN(CC(=O)[O-])CC1)C(=O)O)C(=O)O)C(=O)O)C(=O)O.[Lu+3] [^natLu-8]
PSMA
  IC50: > 2000 nM

## CC(C)(C)[Si](F)(c1ccc(C(=O)NC[C@@H](NC(=O)CN2CCN(CC(=O)[O-])CCN(CC(=O)[O-])CCN(CC(=O)[O-])CC2)C(=O)N[C@H](CCCCNC(=O)CCC(=O)NCCC[C@@H](NC(=O)CC[C@H](NC(=O)N[C@@H](Cc2ccco2)C(=O)O)C(=O)O)C(=O)O)C(=O)O)cc1)C(C)(C)C.[Lu+3] [^natLu-9]
PSMA
  IC50: > 440 nM

## CC(C)(C)[Si](F)(c1ccc(C(=O)NC[C@@H](NC(=O)CN2CCN(CC(=O)[O-])CCN(CC(=O)[O-])CCN(CC(=O)[O-])CC2)C(=O)N[C@H](CCCCNC(=O)CCC(=O)NCCC[C@@H](NC(=O)CC[C@H](NC(=O)O[C@@H](CCC(=O)O)C(=O)O)C(=O)O)C(=O)O)C(=O)O)cc1)C(C)(C)C.[Lu+3] [^natLu/[^177Lu]Lu-3]
LNCaP cells
  %Internalization compared to the reference: 1 h: 67.8 ± 0.5%
[1]; 1 h p.i.
  Biodistribution Adrenals: 1.46 ± 0.70 % ID/g
  Biodistribution Blood: 0.97 ± 0.18 % ID/g
  Biodistribution Bone: 0.18 ± 0.02 % ID/g
  Biodistribution Heart: 0.36 ± 0.04 % ID/g
  Biodistribution Intestine: 0.36 ± 0.17 % ID/g
  Biodistribution Kidneys: 61.8 ± 25.9 % ID/g
  Biodistribution Liver: 0.87 ± 0.28 % ID/g
  Biodistribution Lung: 2.88 ± 2.96 % ID/g
  Biodistribution Muscle: 0.13 ± 0.04 % ID/g
  Biodistribution Pancreas: 0.25 ± 0.06 % ID/g
  Biodistribution Parotid gland: 0.62 ± 0.20 % ID/g
  Biodistribution Spleen: 2.51 ± 0.95 % ID/g
  Biodistribution Stomach: 0.30 ± 0.09 % ID/g
  Biodistribution Submandibular gland: 0.37 ± 0.08 % ID/g
  Biodistribution Tumor: 5.31 ± 0.94 % ID/g
  Ratio Tumor-to-blood: 5.57 ± 1.18
  Ratio Tumor-to-kidney: 0.09 ± 0.03
  Ratio Tumor-to-liver: 6.61 ± 2.19
  Ratio Tumor-to-muscle: 44.1 ± 9.0
  Ratio Tumor-to-parotid gland: 9.09 ± 3.13
  Ratio Tumor-to-submandibular gland: 14.7 ± 3.5
[1]; 24 h p.i.
  Biodistribution Adrenals: 0.04 ± 0.01 % ID/g
  Biodistribution Bone: 0.02 ± 0.01 % ID/g
  Biodistribution Heart: 0.02 ± 0.01 % ID/g
  Biodistribution Intestine: 0.12 ± 0.06 % ID/g
  Biodistribution Kidneys: 0.31 ± 0.05 % ID/g
  Biodistribution Liver: 0.13 ± 0.05 % ID/g
  Biodistribution Lung: 0.03 ± 0.01 % ID/g
  Biodistribution Muscle: 0.01 ± 0.01 % ID/g
  Biodistribution Pancreas: 0.02 ± 0.01 % ID/g
  Biodistribution Parotid gland: 0.04 ± 0.02 % ID/g
  Biodistribution Spleen: 0.09 ± 0.01 % ID/g
  Biodistribution Stomach: 0.06 ± 0.04 % ID/g
  Biodistribution Submandibular gland: 0.03 ± 0.01 % ID/g
  Biodistribution Tumor: 1.20 ± 0.55 % ID/g
  Ratio Tumor-to-blood: 947 ± 652
  Ratio Tumor-to-kidney: 3.80 ± 1.36
  Ratio Tumor-to-liver: 8.94 ± 2.94
  Ratio Tumor-to-muscle: 127 ± 92
  Ratio Tumor-to-parotid gland: 31.8 ± 9.3
  Ratio Tumor-to-submandibular gland: 34.5 ± 9.2
  factor by which tumor-to-submandibular gland and tumor-to-parotid gland ratios are lower than for [177Lu]Lu-1: 8
PSMA
  IC50: 7.1 ± 0.7 nM

## C#CC[C@H](NC(=O)N[C@@H](CCC(=O)N[C@H](CCCNC(=O)CCC(=O)NCCCC[C@@H](NC(=O)[C@@H](CNC(=O)c1ccc([Si](F)(C(C)(C)C)C(C)(C)C)cc1)NC(=O)CN1CCN(CC(=O)[O-])CCN(CC(=O)[O-])CCN(CC(=O)[O-])CC1)C(=O)O)C(=O)O)C(=O)O)C(=O)O.[Lu+3] [^natLu/[^177Lu]Lu-10]
LNCaP cells
  %Internalization compared to the reference: 1 h: 1.2 ± 0.4%
LNCaP cells; listed as [^177Lu]Lu-10
  %Internalization compared to the reference: 1.2 ± 0.4%
[1]; 24 h p.i.
  Biodistribution Adrenals: 0.02 ± 0.02 % ID/g
  Biodistribution Blood: 0.01 ± 0.01 % ID/g
  Biodistribution Bone: 0.03 ± 0.01 % ID/g
  Biodistribution Heart: 0.01 ± 0.00 % ID/g
  Biodistribution Intestine: 0.32 ± 0.29 % ID/g
  Biodistribution Kidneys: 1.29 ± 0.28 % ID/g
  Biodistribution Liver: 0.09 ± 0.04 % ID/g
  Biodistribution Lung: 0.03 ± 0.03 % ID/g
  Biodistribution Pancreas: 0.01 ± 0.01 % ID/g
  Biodistribution Parotid gland: 0.02 ± 0.00 % ID/g
  Biodistribution Spleen: 0.04 ± 0.00 % ID/g
  Biodistribution Stomach: 0.12 ± 0.11 % ID/g
  Biodistribution Submandibular gland: 0.02 ± 0.00 % ID/g
  Biodistribution Tumor: 0.10 ± 0.03 % ID/g
  Ratio Tumor-to-blood: 26.8 ± 16.9
  Ratio Tumor-to-kidney: 0.08 ± 0.01
  Ratio Tumor-to-liver: 1.46 ± 0.88
  Ratio Tumor-to-muscle: 27.7 ±10.9
  Ratio Tumor-to-parotid gland: 6.38 ± 3.06
  Ratio Tumor-to-submandibular gland: 6.11 ± 1.78
  factor by which tumor-to-submandibular gland and tumor-to-parotid gland ratios are lower than for [177Lu]Lu-1: 45
PSMA
  IC50: 138 ± 53 nM
